These are literature values, as cited in patent US7285563B2, “Heteroaromatic urea derivatives as VR-1 receptor modulators for treating pain” (priority 2002, dated 2007).

The data set deals with VR1 (Rattus norvegicus, UniProt O35433).
VR1, sequence (O35433 whole entry): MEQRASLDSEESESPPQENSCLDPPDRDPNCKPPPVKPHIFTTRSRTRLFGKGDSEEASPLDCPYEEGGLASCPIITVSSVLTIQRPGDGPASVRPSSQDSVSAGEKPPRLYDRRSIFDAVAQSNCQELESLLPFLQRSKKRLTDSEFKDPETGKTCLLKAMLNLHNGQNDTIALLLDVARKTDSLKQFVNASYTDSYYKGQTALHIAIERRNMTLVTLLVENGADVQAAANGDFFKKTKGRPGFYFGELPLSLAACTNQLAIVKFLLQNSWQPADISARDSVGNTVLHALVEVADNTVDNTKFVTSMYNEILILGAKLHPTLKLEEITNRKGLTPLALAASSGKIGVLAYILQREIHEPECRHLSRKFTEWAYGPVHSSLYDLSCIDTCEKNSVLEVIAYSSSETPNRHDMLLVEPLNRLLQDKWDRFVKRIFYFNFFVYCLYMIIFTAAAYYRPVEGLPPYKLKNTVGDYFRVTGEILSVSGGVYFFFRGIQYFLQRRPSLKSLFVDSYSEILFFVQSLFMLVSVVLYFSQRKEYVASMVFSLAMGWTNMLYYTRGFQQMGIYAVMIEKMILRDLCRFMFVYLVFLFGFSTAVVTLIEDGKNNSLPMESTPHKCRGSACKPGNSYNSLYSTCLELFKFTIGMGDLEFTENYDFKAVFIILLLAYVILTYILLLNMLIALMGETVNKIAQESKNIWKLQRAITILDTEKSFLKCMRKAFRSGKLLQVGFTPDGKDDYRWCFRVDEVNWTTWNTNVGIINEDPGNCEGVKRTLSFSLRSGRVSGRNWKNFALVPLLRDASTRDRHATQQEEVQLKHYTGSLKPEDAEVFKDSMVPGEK

Regarding `C=C(C)[C@]12C[C@@H](C)[C@@]34O[C@](Cc5ccccc5)(O[C@@H]1[C@@H]3C=C(COC(=O)Cc1cc(I)c(O)c(OC)c1)C[C@]1(O)C(=O)C(C)=C[C@@H]41)O2` [Iodo-resiniferatoxin], the “antagonist of VR1” value (Wahl et al., Mol. Pharmacol., 59:9, 2001) is given as “nanomolar antagonist”. Take `Oc1cc2c(cc1O)CN(C(=S)NCCc1ccc(Cl)cc1)CCC2` [capsazepine]: the “affinity for VR1” value (Walpole et al., J. Med. Chem., 37:1942, 1994) was “micromolar affinity”.
